A short description of series [1]: 15-HEPE levels in tissues of dosed rats. The format is in vivo. The following applies: 500 mg/kg for 7 days, treated vs untreated control, FIG. 11. The method, then:
Rats (n=5) were dosed with 15-HEPE (DS102) 500 mg/kg for 7 days and organs excised to analyse 15-HEPE levels in the tissues of treated vs untreated animals.

Series [2] has as its system Lung Fibroblasts from Idiopathic Pulmonary Fibrosis (IPF) patients. Description: cytotoxicity in IPF lung fibroblasts. The format is cell-based, human. The note with it: treatment for 48 hours.
The test system of series [3] is mouse model of non-alcoholic steatohepatitis (NASH). Description: NASH mouse model (streptozotocin plus high fat diet), liver fibrosis, Example 2. It is filed as in vivo, mice. The following applies: 500 mg/kg orally once daily from 5 to 9 weeks of age; compared with EPA (500 mg/kg) or vehicle; FIG. 9. As to the method:
Non-alcoholic steatohepatitis (NASH) was induced in mice by a single subcutaneous injection of 200 μg of streptozotocin (Sigma Aldrich) two days after birth and feeding with high fat diet (57 kcal % fat, CLEA Japan) after 4 weeks of age. After randomization, each mouse was orally administered vehicle, telmisartan (10 mg/kg), 15-HEPE (500 mg/kg) or EPA (500 mg/kg) once daily from 5 to 9 weeks of age. At the end of the 9th week, the mice were sacrificed and analyzed.

Series [4] relates to Lung Fibroblasts from Idiopathic Pulmonary Fibrosis (IPF) patients. Nature of the series: TGF-beta induced alpha-SMA production in IPF lung fibroblasts. The format is cell-based, human. The following applies: 100 ug/ml; 2 hours pretreatment, then TGF beta (20 ng/ml) for 48 hours; FIG. 10. As to the method: Lung Fibroblasts from Idiopathic Pulmonary Fibrosis (IPF) patients were plated at 10000 cells per well in their respective growth mediums and allowed to attach overnight. After attachment, the cells were pretreated with 15(S)-HEPE for 2 hours in their respective assay mediums. After 2 hours, the cells were then treated with compounds+/−TGF beta (20 ng/ml) for 48 hours. After 48 hours, the conditioned media was collected and frozen at −80° C. for future collagen analysis. After collection, the cells were stained for SMA I expression. The collagen ELISA was performed according to the manufacturer's instructions.

Series [5] concerns mouse model of NAFLD. Description: mouse model of NAFLD (streptozotocin plus high-fat diet), Example 1. The following applies: for fibrosis (histology, sirius red staining): compared to vehicle, FIGS. 7A-7D; for NAFLD Activity Score (NAS): FIGS. 8A-D. It is filed as in vivo, mice (C57/BL6). As to the method:
The purpose of this study was to examine the effects of 15-HEPE and 15-HETrE compared to vehicle and to telmisartan in a mouse model of NAFLD.
C57/BL6 mice obtained from Charles River Laboratories were divided into 6 study groups as follows:
Group 1 (Vehicle): Twelve mice were each administered a single dose of steptozotocin after birth and fed a high-fat diet for four weeks. The mice were then fed vehicle in a volume of 10 mL/kg once daily from 5 to 12 weeks of age.
Group 2 (telmisartan): Twelve mice were each administered a single dose of steptozotocin after birth and fed a high-fat diet for four weeks. The mice were then fed telmisartan in an amount of 5 mg/kg once daily from 5 to 12 weeks of age.
Group 3 (15-HEPE, low dose): Twelve mice were each administered a single dose of steptozotocin after birth and fed a high-fat diet for four weeks. The mice were then fed 15-HEPE in an amount of 50 mg/kg once daily from 5 to 12 weeks of age.
Group 4 (15-HEPE, high dose): Twelve mice were each administered a single dose of steptozotocin after birth and fed a high-fat diet for four weeks. The mice were then fed 15-HEPE in an amount of 500 mg/kg once daily from 5 to 12 weeks of age.
Group 5 (15-HETrE, low dose): Twelve mice were each administered a single dose of steptozotocin after birth and fed a high-fat diet for four weeks. The mice were then fed 15-HETrE in an amount of 10 mg/kg once daily from 5 to 12 weeks of age.
Group 6 (15-HETrE, high dose): Twelve mice were administered a single dose of steptozotocin after birth and fed a high-fat diet for four weeks. The mice were then fed 15-HETrE in an amount of 100 mg/kg once daily from 5 to 12 weeks of age.
At 12 weeks of age, all mice were assessed for changes in: • serum biochemistry (e.g., ALT levels, LDL levels, VLDL levels, HDL levels, triglyceride levels, total cholesterol level), • fibrosis (e.g., histology using sirius red staining), and • NAFLD activity score (including, e.g., H&E staining histology). Results

Setting [6] is: telmisartan 5 mg/kg once daily from 5 to 12 weeks of age, vs vehicle.

Entries after “also recorded” stand apart in the source; their conditions may differ.

The results in this text go back to patent publication US10363235B2, “Compositions comprising 15-HEPE and methods of treating or preventing fibrosis using same” (Afimmune Limited, priority 2014, dated 2019).

`CCC=CCC(O)C=CC=CCC=CCC=CCCCC(=O)O` (stereo not shown) [15-HEPE, 15-Hydroxy-eicosa-5,8,11,13,17-pentaenoic acid]: in series [1], the “15-HEPE level in the liver” value is listed as “significantly more” and the “15-HEPE level in the lung” value is “significantly more”. For the same compound, the cytotoxicity entry in series [2] is “No cytotoxicity”. In series [3], the “treating and/or preventing liver fibrosis” value is on record as “more effective”. The “TGF-beta induced alpha-SMA production” value in series [4] is given as “inhibited; also recorded: inhibition”. The “fibrosis (histology, sirius red staining)” value in series [5] (high-dose 15-HEPE 500 mg/kg once daily from 5 to 12 weeks of age, equivalent to telmisartan) was “statistically equivalent low amount of fibrosis”. In addition, the “plasma ALT levels” value in series [5] (high-dose 15-HEPE 500 mg/kg once daily from 5 to 12 weeks of age, vs high-dose 15-HETrE group (100 mg/kg), FIG. 6) was “significantly lower”. The “NAFLD Activity Score (NAS)” value in series [5] (high-dose 15-HEPE 500 mg/kg once daily from 5 to 12 weeks of age, vs placebo (vehicle), p<0.01) is “significantly lower”. In addition, the “plasma ALT levels” value in series [5] (high-dose 15-HEPE 500 mg/kg once daily from 5 to 12 weeks of age, vs vehicle, FIG. 6) was “significantly lower”. For the same compound, the Total cholesterol levels result in series [5] (low-dose 15-HEPE 50 mg/kg once daily from 5 to 12 weeks of age, vs vehicle, FIG. 4) is “significantly lower”.
For the compound `CCCCCC(O)/C=C/C=C\C/C=C\CCCCCCC(=O)O` (stereo not shown) [15-HETrE, 15-hydroxyeicosa-8(Z),11(Z),13(E)-trienoic acid], the serum triglycerides result in series [5] (low-dose 15-HETrE 10 mg/kg once daily from 5 to 12 weeks of age, vs vehicle (Mann Whitney), FIG. 1) is reported as “significantly lower”. Further, the VLDL levels result in series [5] (low-dose 15-HETrE 10 mg/kg once daily from 5 to 12 weeks of age, vs vehicle, FIG. 2) is listed as “significantly lower”. Further, the LDL levels result in series [5] (low-dose 15-HETrE 10 mg/kg once daily from 5 to 12 weeks of age, vs vehicle, FIG. 3) is listed as “significantly lower”. Moreover, the Total cholesterol levels entry in series [5] (low-dose 15-HETrE 10 mg/kg once daily from 5 to 12 weeks of age, vs vehicle, FIG. 4) is listed as “significantly lower”.
With `CCCc1nc2c(C)cc(-c3nc4ccccc4n3C)cc2n1Cc1ccc(-c2ccccc2C(=O)O)cc1` [telmisartan, 2-(4-{[4-Methyl-6-(1-methyl-1H-1,3-benzodiazol-2-yl)-2-propyl-1H-1,3-benzodiazol-1-yl]methyl}phenyl)benzoic acid], in series [5] (telmisartan 5 mg/kg once daily from 5 to 12 weeks of age), the “fibrosis (histology, sirius red staining)” value is reported as “low amount of fibrosis”. In addition, in series [5] (setting [6]), the Hydroxyproline levels entry is “did not show statistically significant reductions”, the LDL levels entry is “did not show statistically significant reductions”, the Total cholesterol levels entry is reported as “did not show statistically significant reductions” and the VLDL levels result is “did not show statistically significant reductions”. Moreover, in series [5] (setting [6]), the “plasma ALT levels” value was “did not show statistically significant reductions” and the serum triglycerides result is given as “did not show statistically significant reductions”. The “NAFLD Activity Score (NAS)” value in series [5] (telmisartan 5 mg/kg once daily from 5 to 12 weeks of age, vs vehicle, p<0.001) is on record as “significantly lower”.
